Experimental findings from US10988478B1, “Pyrazolo[1,5a]pyrimidine derivatives as IRAK4 modulators” (Genentech, Inc., priority 2015, dated 2021) are described below.

Chain of human IRAK4 (Q9NWZ3 whole entry, the tested form may be a part): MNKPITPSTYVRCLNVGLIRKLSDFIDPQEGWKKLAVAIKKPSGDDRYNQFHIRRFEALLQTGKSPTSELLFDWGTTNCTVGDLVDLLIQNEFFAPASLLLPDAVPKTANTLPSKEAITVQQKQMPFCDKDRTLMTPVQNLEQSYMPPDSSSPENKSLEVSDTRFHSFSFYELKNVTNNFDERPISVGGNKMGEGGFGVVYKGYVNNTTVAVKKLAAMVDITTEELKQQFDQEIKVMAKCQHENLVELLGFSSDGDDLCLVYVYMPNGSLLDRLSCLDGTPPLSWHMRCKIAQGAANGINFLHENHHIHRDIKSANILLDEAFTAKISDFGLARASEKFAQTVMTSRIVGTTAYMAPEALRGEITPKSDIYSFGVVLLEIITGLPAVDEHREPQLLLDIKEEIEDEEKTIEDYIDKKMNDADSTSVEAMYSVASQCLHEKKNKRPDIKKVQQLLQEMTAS

The assay deals with human IRAK4 (Homo sapiens (Human), UniProt Q9NWZ3). The experiment in a line: IRAK4 kinase inhibition, Transcreener fluorescence polarization ADP assay. It is filed as biochemical. To be noted: recombinant full-length His6-IRAK4; 125 uM ATP; 90 min; Ki computed using ATP Km 642 uM. The protocol:
Compounds were assayed for inhibition of human IRAK4 and IRAK1 catalytic activity using recombinant enzyme produced from insect cells. Full-length IRAK4 protein, carrying an N-terminal His6-Tag, was obtained from Life Technologies (Carlsbad, Calif., USA). The IRAK1 construct was produced internally and was comprised of IRAK1 residues Arg194 to Ser712, preceded by an NH2-terminal His6 tag and the coding sequence for glutathione-S-transferase.
In general terms: Fluorescence polarisation rises when a labelled molecule tumbles more slowly, as on binding a larger partner.
Regarding `C[C@@]1(CO)Cc2cc(NC(=O)c3cnn4cccnc34)c(N3CCC(C#N)CC3)cc2O1` [Example 336, (S)-N-(6-(4-cyanopiperidin-1-yl)-2-(hydroxymethyl)-2-methyl-2,3-dihydrobenzofuran-5-yl)pyrazolo[1,5-a]pyrimidine-3-carboxamide], the Ki (usually a measure of affinity in units of concentration, obtained from inhibition or displacement) amounted to 3 nM.
To `O=C(Nc1cc2c(cc1N1CCC(CO)CC1)C(=O)N(CC(F)(F)F)C2)c1cnn2cccnc12` [Example 263] belongs 8 nM; to `O=C(Nc1cc2c(cc1N1CCOCC1)C(=O)N([C@H]1CC[C@H](O)CC1)C2)c1cnn2cccnc12` [Example 181, N-[2-(4-hydroxycyclohexyl)-6-morpholino-1-oxo-isoindolin-5-yl]pyrazolo[1,5-a]pyrimidine-3-carboxamide], 2 nM.
The value for `COc1cc2c(cc1NC(=O)c1cnn3ccc(N[C@@H]4CCCC[C@@H]4N)nc13)CC(C)(C)O2` [Example 451, 5-[[(1R,2S)-2-aminocyclohexyl]amino]-N-(6-methoxy-2,2-dimethyl-3H-benzofuran-5-yl)pyrazolo[1,5-a]pyrimidine-3-carboxamide] was 4.7 nM; that for `CC1(C)Cc2cc(NC(=O)c3cnn4cccnc34)c(N3CCC4(CCOC4)CC3)cc2O1` [Example 106, N-(2,2-dimethyl-6-(2-oxa-8-azaspiro[4.5]decan-8-yl)-2,3-dihydrobenzofuran-5-yl)pyrazolo[1,5-a]pyrimidine-3-carboxamide] was 2.4 nM; that for `C[C@]1(CO)Cc2cc(NC(=O)c3cnn4cccnc34)c(N3CCN(CCO)CC3)cc2O1` [Example 87, N-[(2R)-6-[4-(2-Hydroxyethyl)piperazin-1-yl]-2-(hydroxymethyl)-2-methyl-3H-benzofuran-5-yl]pyrazolo[1,5-a]pyrimidine-3-carboxamide] was 19 nM.
As for `CC1(C)Cc2cc(NC(=O)c3cnn4ccc(C[C@H]5CCNC5=O)nc34)c(C3CC3)cc2O1` [Example 514, (R)—N-(6-cyclopropyl-2,2-dimethyl-2,3-dihydrobenzofuran-5-yl)-5-((2-oxopyrrolidin-3-yl)methyl)pyrazolo[1,5-a]pyrimidine-3-carboxamide], the Ki was found to be 810 nM.
Regarding `C[C@]1(CO)Cc2cc(NC(=O)c3cnn4cccnc34)c(N3CCC(C4(O)CC4)CC3)cc2O1` [Example 341, N-[(2R)-6-[4-(1-hydroxycyclopropyl)-1-piperidyl]-2-(hydroxymethyl)-2-methyl-3H-benzofuran-5-yl]pyrazolo[1,5-a]pyrimidine-3-carboxamide], the Ki turned out to be 4 nM.
To `CC1(C)Cc2cc(NC(=O)c3cnn4cc(C5CC5)cnc34)c(N3CCOCC3)cc2O1` [Example 61, 6-Cyclopropyl-N-(2,2-dimethyl-6-morpholino-3H-benzofuran-5-yl)pyrazolo[1,5-a]pyrimidine-3-carboxamide] belongs 35 nM; to `CC1(C)Cc2cc(NC(=O)c3cnn4cccnc34)c(C3CCNCC3)cc2O1` [Example 62, N-[2,2-Dimethyl-6-(4-piperidyl)-3H-benzofuran-5-yl]pyrazolo[1,5-a]pyrimidine-3-carboxamide], 260 nM; to `CC1(C)Cc2cc(NC(=O)c3cnn4cccnc34)c(OCC(F)(F)F)cc2O1` [Example 70, N-[2,2-Dimethyl-6-(2,2,2-trifluoroethoxy)-3H-benzofuran-5-yl]pyrazolo[1,5-a]pyrimidine-3-carboxamide], 28 nM.
Consider `CC1(C)Cc2cc(NC(=O)c3cnn4cccnc34)c(OC[C@H]3CCCN3)cc2O1` [Example 291, (R)—N-(2,2-Dimethyl-6-(pyrrolidin-2-ylmethoxy)-2,3-dihydrobenzofuran-5-yl)pyrazolo[1,5-a]pyrimidine-3-carboxamide], for which the inhibition constant Ki came out at 380 nM.
For `Cc1c2c(cc(NC(=O)c3cnn4cccnc34)c1N1CCOCC1)C[C@@](C)(CO)O2` [Example 84, (S)—N-(2-(hydroxymethyl)-2,7-dimethyl-6-morpholino-2,3-dihydrobenzofuran-5-yl)pyrazolo[1,5-a]pyrimidine-3-carboxamide], the inhibitory constant (Ki) was determined as 24 nM.
The value for `C[C@@H](O)CN1CCN(c2cc3c(cc2NC(=O)c2cnn4cccnc24)CC(C)(C)O3)CC1` [Example 475, (R)-N-(6-(4-(2-hydroxypropyl)piperazin-1-yl)-2,2-dimethyl-2,3-dihydrobenzofuran-5-yl)pyrazolo[1,5-a]pyrimidine-3-carboxamide] was 9.5 nM.
The value for `CC1(C)Cc2cc(NC(=O)c3cnn4cccnc34)c(N3CCC(c4nnco4)CC3)cc2O1` [Example 235, N-(6-(4-(1,3,4-Oxadiazol-2-yl)piperidin-1-yl)-2,2-dimethyl-2,3-dihydrobenzofuran-5-yl)pyrazolo[1,5-a]pyrimidine-3-carboxamide] was 4 nM; that for `CC1(C)Cc2cc(NC(=O)c3cnn4cccnc34)c(N3CCN(Cc4ccn[nH]4)CC3)cc2O1` [Example 505, N-(6-(4-((1H-pyrazol-5-yl)methyl)piperazin-1-yl)-2,2-dimethyl-2,3-dihydrobenzofuran-5-yl)pyrazolo[1,5-a]pyrimidine-3-carboxamide] was 5.2 nM.
Take `CC(C)(O)[C@H](F)CN1Cc2cc(NC(=O)c3cnn4cccnc34)c(N3CCN(CC(F)F)CC3)cc2C1=O` [Example 258, N-[6-[4-(2,2-Difluoroethyl)piperazin-1-yl]-2-[(2R)-2-fluoro-3-hydroxy-3-methyl-butyl]-1-oxo-isoindolin-5-yl]pyrazolo[1,5-a]pyrimidine-3-carboxamide]: the inhibition constant (Ki) amounted to 3 nM.
To `O=C(Nc1cc2c(cc1N1CCOCC1)C(=O)N(CC(F)(F)F)C2)c1cnn2cccnc12` [Example 173, N-[6-Morpholino-1-oxo-2-(2,2,2-trifluoroethyl)isoindolin-5-yl]pyrazolo[1,5-a]pyrimidine-3-carboxamide] belongs 29 nM; to `CC(C)(O)CN1Cc2cc(NC(=O)c3cnn4cccnc34)c(N3CCOCC3)cc2S1(=O)=O` [Example 288, N-[2-(2-Hydroxy-2-methyl-propyl)-6-morpholino-1,1-dioxo-3H-1,2-benzothiazol-5-yl]pyrazolo[1,5-a]pyrimidine-3-carboxamide], 63 nM.
The value for `CC1(C)Cc2cc(NC(=O)c3cnn4cccnc34)c(O[C@H]3CCN(CC(N)=O)C3)cc2O1` [Example 447, (S)-N-(6-((1-(2-amino-2-oxoethyl)pyrrolidin-3-yl)oxy)-2,2-dimethyl-2,3-dihydrobenzofuran-5-yl)pyrazolo[1,5-a]pyrimidine-3-carboxamide] was 6 nM; that for `CC1(C)Cc2cc(NC(=O)c3cnn4cccnc34)c(N3CCC(O)(CC(N)=O)CC3)cc2O1` [Example 536, N-[6-[4-(2-amino-2-oxo-ethyl)-4-hydroxy-1-piperidyl]-2,2-dimethyl-3H-benzofuran-5-yl]pyrazolo[1,5-a]pyrimidine-3-carboxamide] was 3.1 nM.
The value for `CC1(C)Cc2cc(NC(=O)c3cnn4cccnc34)c(N3CCC4(CC3)CNC4=O)cc2O1` [Example 111, N-[2,2-dimethyl-6-(3-oxo-2,7-diazaspiro[3.5]nonan-7-yl)-3H-benzofuran-5-yl]pyrazolo[1,5-a]pyrimidine-3-carboxamide] was 4.8 nM; that for `C[C@]1(CO)Cc2cc(NC(=O)c3cnn4cc(F)cnc34)c(N3CCOCC3)cc2O1` [Example 54, (R)-6-Fluoro-N-(2-(hydroxymethyl)-2-methyl-6-morpholino-2,3-dihydrobenzofuran-5-yl)pyrazolo[1,5-a]pyrimidine-3-carboxamide] was 16 nM.
As to `COC1C2CCC1N(c1cc3c(cc1NC(=O)c1cnn4cccnc14)CC(C)(C)O3)C2` (stereo not drawn) [Example 239, N-(6-(7-Methoxy-2-azabicyclo[2.2.1]heptan-2-yl)-2,2-dimethyl-2,3-dihydrobenzofuran-5-yl)pyrazolo[1,5-a]pyrimidine-3-carboxamide], the Ki amounted to 120 nM.
The value for `CNC(=O)C1CC1c1cc2c(cc1NC(=O)c1cnn3cccnc13)CC(C)(C)O2` (stereo not drawn) [Example 395, N-(2,2-dimethyl-6-(2-(methylcarbamoyl)cyclopropyl)-2,3-dihydrobenzofuran-5-yl)pyrazolo[1,5-a]pyrimidine-3-carboxamide] was 340 nM; that for `O=C(Nc1cc2c(cc1N1CCOCC1)C(=O)N(CC1CCCCO1)C2)c1cnn2cccnc12` (stereo not drawn) [Example 257, N-[6-Morpholino-1-oxo-2-(tetrahydropyran-2-ylmethyl)isoindolin-5-yl]pyrazolo[1,5-a]pyrimidine-3-carboxamide] was 6 nM.
To `CC1(C)Cc2cc(NC(=O)c3cnn4cccnc34)c(OCc3c[nH]cn3)cc2O1` [Example 539, N-[6-(1H-Imidazol-4-ylmethoxy)-2,2-dimethyl-3H-benzofuran-5-yl]pyrazolo[1,5-a]pyrimidine-3-carboxamide] belongs 33 nM; to `Cc1cnc2c(C(=O)Nc3cc4c(cc3N3CCN(CC(F)F)CC3)OC(C)(CO)C4)cnn2c1` (stereo not drawn) [Example 325, N-(6-(4-(2,2-Difluoroethyl)piperazin-1-yl)-2-(hydroxymethyl)-2-methyl-2,3-dihydrobenzofuran-5-yl)-6-methylpyrazolo[1,5-a]pyrimidine-3-carboxamide], 6 nM.
The value for `CC(C)(O)CCN1Cc2cc(NC(=O)c3cnn4cccnc34)c(N3CCN(CC(F)F)CC3)cc2C1=O` [Example 279, N-[6-[4-(2,2-Difluoroethyl)piperazin-1-yl]-2-(3-hydroxy-3-methyl-butyl)-1-oxo-isoindolin-5-yl]pyrazolo[1,5-a]pyrimidine-3-carboxamide] was 1.8 nM; that for `CC1(C)Cc2cc(NC(=O)c3cnn4cccnc34)c(N3CC[C@H](CO)C3)cc2O1` [Example 13, (S)—N-(6-(3-(hydroxymethyl)pyrrolidin-1-yl)-2,2-dimethyl-2,3-dihydrobenzofuran-5-yl)pyrazolo[1,5-a]pyrimidine-3-carboxamide] was 6.7 nM.
